Converted amounts (≈) assume the structure as drawn.
Columns and labels:
[1] = test system: Ca. pseudotropicalis MY1040; experiment: Agar dilution assay, MIC; type: cell-based, Candida pseudotropicalis; conditions: strain MY1040; yeast nitrogen base dextrose agar; read-out: Minimum Inhibitory Concentration
Method: (§1) In separate operations, in vitro antifungal activity determinations were carried out with Compound IB and with Compound IC against a panel of filamentous and yeast-like fungi employing yeast nitrogen base dextrose agar medium. In carrying out the assay, the compound to be tested was solubilized in 10 percent dimethyl sulfoxide (DMSO) supplemented with one drop of Tween 20. Two-fold dilutions were made with sterile distilled water/10% DMSO to obtain final concentrations in the agar dilution assay plates ranging from 64 to 0.06 μg/ml in the operation with Compound IB and from 128 to 0.06 μg/ml in the operation with Compound IC.
(§2) Nystatin (commercially available antifungal agent) was used as a positive antifungal control.

[2] = test system: Cr. neoformans MY1146; experiment: Agar dilution assay, MIC; type: cell-based, Cryptococcus neoformans; conditions: strain MY1146; yeast nitrogen base dextrose agar; read-out: Minimum Inhibitory Concentration
Method: as §1, §2

[3] = test system: A. flavus MF0383; experiment: Agar dilution assay, MIC; type: cell-based, Aspergillus flavus; conditions: strain MF0383; yeast nitrogen base dextrose agar; read-out: Minimum Inhibitory Concentration
Method: as §1, §2

[4] = test system: Aspergillus fumigatus MF4839; experiment: Agar dilution assay, MIC; type: cell-based; conditions: strain MF4839; yeast nitrogen base dextrose agar; read-out: Minimum Inhibitory Concentration
Method: as §1, §2

[5] = test system: Ca. parapsilosis MY1009; experiment: Agar dilution assay, MIC; type: cell-based; conditions: strain MY1009; yeast nitrogen base dextrose agar; read-out: Minimum Inhibitory Concentration
Method: as §1, §2

[6] = test system: Ca. guilliermondi MY1019; experiment: Agar dilution assay, MIC; type: cell-based; conditions: strain MY1019; yeast nitrogen base dextrose agar; read-out: Minimum Inhibitory Concentration
Method: as §1, §2

[7] = test system: Candida albicans MY1058; experiment: Agar dilution assay, MIC; type: cell-based; conditions: strain MY1058; yeast nitrogen base dextrose agar; read-out: Minimum Inhibitory Concentration
Method: as §1, §2

[8] = test system: Penicillium italicum MF2819; experiment: Agar dilution assay, MIC; type: cell-based; conditions: strain MF2819; yeast nitrogen base dextrose agar; read-out: Minimum Inhibitory Concentration
Method: as §1, §2

[9] = test system: Ca. stellatoidea MY1017; experiment: Agar dilution assay, MIC; type: cell-based; conditions: strain MY1017; yeast nitrogen base dextrose agar; read-out: Minimum Inhibitory Concentration
Method: as §1, §2

[10] = test system: Ca. parapsilosis MY1010; experiment: Agar dilution assay, MIC; type: cell-based; conditions: strain MY1010; yeast nitrogen base dextrose agar; read-out: Minimum Inhibitory Concentration
Method: as §1, §2

[11] = test system: Torulopsis glabrata MY1059; experiment: Agar dilution assay, MIC; type: cell-based; conditions: strain MY1059; yeast nitrogen base dextrose agar; read-out: Minimum Inhibitory Concentration
Method: as §1, §2

[12] = test system: Cryptococcus neoformans MY1051; experiment: Agar dilution assay, MIC; type: cell-based; conditions: strain MY1051; yeast nitrogen base dextrose agar; read-out: Minimum Inhibitory Concentration
Method: as §1, §2

[13] = test system: Ca. krusei MY1020; experiment: Agar dilution assay, MIC; type: cell-based; conditions: strain MY1020; yeast nitrogen base dextrose agar; read-out: Minimum Inhibitory Concentration
Method: as §1, §2

[14] = test system: Sac. cerevisiae MY1027; experiment: Agar dilution assay, MIC; type: cell-based, Saccharomyces cerevisiae; conditions: Saccharomyces cerevisiae; strain MY1027; yeast nitrogen base dextrose agar; read-out: Minimum Inhibitory Concentration
Method: as §1, §2

[15] = test system: Ca. tropicalis MY1012; experiment: Agar dilution assay, MIC; type: cell-based, Candida tropicalis; conditions: strain MY1012; yeast nitrogen base dextrose agar; read-out: Minimum Inhibitory Concentration
Method: as §1, §2

[16] = test system: Ca. tropicalis MY1011; experiment: Agar dilution assay, MIC; type: cell-based, Candida tropicalis; conditions: strain MY1011; yeast nitrogen base dextrose agar; read-out: Minimum Inhibitory Concentration
Method: as §1, §2

[17] = test system: Ca. rugosa MY1022; experiment: Agar dilution assay, MIC; type: cell-based, Candida rugosa; conditions: strain MY1022; yeast nitrogen base dextrose agar; read-out: Minimum Inhibitory Concentration
Method: as §1, §2

[18] = test system: Ca. albicans MY0992; experiment: Agar dilution assay, MIC; type: cell-based, Candida albicans; conditions: strain MY0992; yeast nitrogen base dextrose agar; read-out: Minimum Inhibitory Concentration
Method: as §1, §2

[19] = test system: Ca. albicans MY1013; experiment: Agar dilution assay, MIC; type: cell-based, Candida albicans; conditions: strain MY1013; yeast nitrogen base dextrose agar; read-out: Minimum Inhibitory Concentration
Method: as §1, §2

[20] = test system: Ca. albicans MY1055; experiment: Agar dilution assay, MIC; type: cell-based, Candida albicans; conditions: strain MY1055; yeast nitrogen base dextrose agar; read-out: Minimum Inhibitory Concentration
Method: as §1, §2

[21] = test system: Ca. albicans MY1029; experiment: Agar dilution assay, MIC; type: cell-based, Candida albicans; conditions: strain MY1029; yeast nitrogen base dextrose agar; read-out: Minimum Inhibitory Concentration
Method: as §1, §2

[22] = test system: panel of representative yeasts, filamentous fungi (molds) and bacteria; experiment: Antifungal disc diffusion assay, panel; type: cell-based; conditions: panel of organisms
Text: The antifungal activity of the compounds may be detected in an antifungal assay employing disc diffusion methods against a panel of representative yeasts, filamentous fungi (molds) and bacteria.
The filamentous fungi used in the assay are Cochliobolus miyabeanus, Penicillium sp. (three strains), Aspergillus niger, Trichoderma sp., Phoma sp., Trichoderma lignorum, Fusarium oxysporum, Ustilago maydis, Ceratocystis ulmi, Alternaria solani, Verticillium serrae, Botrytis allii, Scopulariopsis communis, Cephalosporium sp., Cercospora beticola, […], Rhizomucor miehei, Aspergillus flavus and Aspergillus fumigatus.
The yeasts employed in the assay are Saccharomyces cerevisiae, Candida albicans, […], Candida tropicalis, Candida rugosa, Brettanomyces bruxellensis, Torulospora hansenii, Candida quilliermondi, Candida pseudotropicalis, Torulopsis glabrata, Cryptococcus albidus, and Cryptococcus laurentii.
The bacteria employed in the assay are Streptomyces sp., Acholeplasma laidlawii and Bacillus subtilis.
For carrying out the assay, seeded assay plates are prepared in the following manner according to the type of assay strain.
Inocula for filamentous fungi are prepared by scraping the surface of stock plates maintained on potato dextrose agar with a moistened sterile dacron swab. The spores and mycelia are then suspended in 10 milliliters of sterile potato dextrose broth and adjusted to 70 percent transmission at 660 nm.
Inocula for yeasts and bacterial strains are prepared from overnight broth cultures then diluted into potato dextrose agar to a final concentration of either 40 percent or 70 percent transmission at 660 nm.
When the organism is Acholephasma laidlawii, it is suspended in brain heart infusion broth supplemented with 2.5 percent yeast extract and 20 percent heat inactivated horse serum, and the broth adjusted to a final concentration of 60 percent transmission at 660 nm. […]
Following incubation, the inhibition zones are measured and recorded. […]

SMILES	MIC [1] [µg/mL]	MIC [2] [µg/mL]	MIC [3] [µg/mL]	MIC [4] [µg/mL]	MIC [5] [µg/mL]	MIC [6] [µg/mL]	MIC [7] [µg/mL]	MIC [8] [µg/mL]	MIC [9] [µg/mL]	MIC [10] [µg/mL]	MIC [11] [µg/mL]	MIC [12] [µg/mL]	MIC [13] [µg/mL]	MIC [14] [µg/mL]	MIC [15] [µg/mL]	MIC [16] [µg/mL]	MIC [17] [µg/mL]	MIC [18] [µg/mL]	MIC [19] [µg/mL]	MIC [20] [µg/mL]	other results
CCCCCCC(O)CCCCCCC=CC(O)C(O)C(O)C(N)C(=O)O (stereo not shown) [Compound IB, 2-amino-3,4,5,14-tetrahydroxy-6-eicosengoic acid]	0.5 (≈ 1.28 µM)	2 (≈ 5.13 µM)	64 (≈ 164 µM)	64 (≈ 164 µM)	32 (≈ 82.1 µM)	> 64	16 (≈ 41.1 µM)	> 64	16 (≈ 41.1 µM)	2 (≈ 5.13 µM)	16 (≈ 41.1 µM)	2 (≈ 5.13 µM)	> 64	16 (≈ 41.1 µM)	2 (≈ 5.13 µM)	16 (≈ 41.1 µM)	> 64	32 (≈ 82.1 µM)	32 (≈ 82.1 µM)	32 (≈ 82.1 µM)	MIC [21]: 64 µg/mL (≈ 164 µM); antifungal activity [22]: consistently active against most of the 41 of the filamentous fungi and yeasts
CCCCCCC(O)CCCCCCC=CC(OC(C)=O)C(O)C(O)C(N)C(=O)O (stereo not shown) [Compound IC, 5-acetyloxy-2-amino-3,4,14-trihydroxy-6-eicosenoic acid]	2 (≈ 4.63 µM)	2 (≈ 4.63 µM)	64 (≈ 148 µM)	64 (≈ 148 µM)	> 128	> 128	32 (≈ 74.1 µM)	32 (≈ 74.1 µM)	32 (≈ 74.1 µM)	8 (≈ 18.5 µM)	16 (≈ 37.1 µM)	2 (≈ 4.63 µM)	> 128	32 (≈ 74.1 µM)	2 (≈ 4.63 µM)	32 (≈ 74.1 µM)	> 128	128 (≈ 297 µM)	128 (≈ 297 µM)	128 (≈ 297 µM)	MIC [21]: > 128 µg/mL

— patent US5196327A, “Process for producing antifungal fermentation products and compositions thereof” (Merck & Co., Inc., priority 1991, dated 1993)
